Counter-ions that a name gives are not always drawn.
Key:
[1] = molecular target: T1, PIM1 serine/threonine kinase (Homo sapiens, UniProt P11309); assay: PIM1 serine/threonine kinase inhibitory effect; assay type: biochemical; details: PIM1 serine/threonine kinase activity; ATP 40 μM; 30° C., 30 minutes
T1 construct: purchased Carna Bioscience, Inc
Method: Each test substance was prepared to 10 mM with dimethylsulfoxide (DMSO), and further diluted with DMSO so as to have concentrations of 1000, 300, 100, 30, 10, 3, 1, 0.3, 0.1, 0.03, 0.01, and 0.001 μM. Moreover, each dilution was further diluted 33.3-fold with an assay buffer to prepare a test substance solution. The composition of the assay buffer was 50 mM HEPES (pH 7.0), 0.02% NaN3, 0.01% Bovine Serum Albumin, 0.1 mM Orthovanadate, 1 mM Dithiothreitol, and 5 mM MgCl2.
5 μL of each test substance solution was added to 384-well plates (n=2), and then 2.5 μL of a substrate solution (substrate 3-biotin (Cisbio Bioassays SAS), final concentration in the reaction solution: 0.5 μM) and 2.5 μL of an ATP solution (in the cases of PIM1, 2, 3, the final concentrations in the reaction solutions were 40, 2, and 10 μM, respectively) were added, 5 μL of each of PIM1, 2, 3 serine/threonine kinase solutions (Carna Bioscience, Inc., the final concentrations in the reaction solutions were 0.15, 1.6, and 0.25 μg/ml, respectively) was finally added, and the mixture was reacted at 30° C. for 30 minutes. The test substance concentrations in the reaction solutions are 10000, 3000, 1000, 300, 100, 30, 10, 3, 1, 0.3, 0.1, and 0.01 nM.
Thereafter, 15 μL of each detection solution (62.5 nM Streptavidin-XL665 (Cisbio Bioassays SAS), […] STK antibody-Cryptate (Cisbio Bioassays SAS), 50 mM HEPES (pH 7.0), 0.8 M KF, 0.1% Bovine Serum Albumin, 20 mM ethylenediaminetetraacetic acid) was added to each well. After stirring, the mixture was reacted at 30° C. for 1 hour. Absorbance (OD620, OD665) at 620 and 665 nm was measured with a microplate reader (SpectraMax M5e, Molecular Devices, LLC).
Non-linear regression analysis was performed by an SAS system (SAS Institute Inc.) using the ratio (OD665/OD620) of the measured absorbance to calculate a test substance concentration (IC50) that inhibits PIM1 serine/threonine kinase activity by 50%.

[2] = molecular target: PIM1 transgenic cells (Ba/F3) (Homo sapiens, UniProt P11309); assay: Proliferation inhibitory effect on PIM1 transgenic cells; assay type: cell-based, mouse; details: proliferation inhibition, 72 hours, Cell Counting Kit-8, read-out: PIM1 IC50
Sequence of PIM1 transgenic cells (Ba/F3) (P11309 whole entry, stated change not applied): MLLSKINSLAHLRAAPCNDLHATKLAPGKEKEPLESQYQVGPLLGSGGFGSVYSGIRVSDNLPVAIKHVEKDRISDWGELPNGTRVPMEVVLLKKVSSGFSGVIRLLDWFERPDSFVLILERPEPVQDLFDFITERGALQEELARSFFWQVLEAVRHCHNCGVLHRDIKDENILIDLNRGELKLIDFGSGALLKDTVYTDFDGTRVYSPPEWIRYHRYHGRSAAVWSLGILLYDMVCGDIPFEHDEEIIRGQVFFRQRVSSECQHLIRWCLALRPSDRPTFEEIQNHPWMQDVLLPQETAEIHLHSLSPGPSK
Source text: Human PIM1, 2, and 3 genes were inserted into the multi-cloning sites of retrovirus expression vectors pMYs-IRES-GFP, respectively, to prepare gene transfer vectors. Then, each gene transfer vector was introduced into packaging cells PLAT-E derived from a human fetal kidney cell line in the logarithmic growth phase, using a transfection reagent (FuGENE6, Promega Corporation). Since the culture supernatant of PLAT-E after gene transfer contained virus particles for gene transfer, the culture supernatant was collected and used as a medium for gene transfer. The medium for gene transfer was added to a plate coated with RetroNectin, and the plate was incubated to attach the virus particles to the plate. Then, a mouse pro-B cell line Ba/F3 in the logarithmic growth phase was seeded on the plate and infected with the virus to prepare PIM1, 2, or 3 transgenic cells that proliferate in a PIM 1, 2, or 3-dependent manner. The expression of PIM1, 2, or 3 protein in each cell was confirmed by Western blotting.
Each test substance was prepared to 10 mM with dimethylsulfoxide (DMSO), and diluted with DMSO so as to have concentrations of 3000, 1000, 300, 100, 30, 10, 3, and 1 μM. Moreover, each dilution was further diluted 10-fold with distilled water to prepare a test substance solution.
PIM1, 2, 3-expressing cells were seeded on a 96-well plate, and each test substance solution prepared the next day was added such that final concentrations were 10000, 3000, 1000, 300, 100, 30, 10, 3, and 1 nM. 72 hours after the addition, 10 μL of Cell Counting Kit-8 (DOJINDO LABORATORIES) was added to each well. After incubation for 1 to 4 hours, absorbance OD450 at 450 nm was measured. In addition, absorption OD650 at 650 nm as a reference wavelength was measured.
OD450-OD650 for each condition was calculated, and then the inhibition rates when OD450-OD650 of negative control (DMSO only) and OD450-OD650 of Blank (without cells) were set to 0% and 100%, respectively, were calculated. Then, non-linear regression analysis was performed for logarithmic dose and inhibition rate using a two-parameter logistic model to estimate IC50 values.

T1 sequence (P11309 whole entry): as the sequence (P11309 whole entry, stated change not applied) above

With `CC(C)Oc1c(F)cc(-c2n[nH]c(=O)o2)cc1N[C@@H](C)[C@H]1CC[C@H](N)CC1` [Example 175, 5-{3-({(1S)-1-[(1r,4S)-4-aminocyclohexyl]ethyl}amino)-5-fluoro-4-[(propan-2-yl)oxy]phenyl}-1,3,4-oxadiazol-2(3H)-one dihydrochloride] the IC50 [1] was 17 nM and the GI50 [2] was 320 nM.
Molecule `C[C@H](Nc1cc(-c2n[nH]c(=O)o2)ccc1C(F)(F)F)[C@@H]1[C@@H]2CC[C@H]1CNC2` [Example 155, 5-[3-({(1S)-1-[(1R,5S,8r)-3-azabicyclo[3.2.1]octan-8-yl]ethyl}amino)-4-(trifluoromethyl)phenyl]-1,3,4-oxadiazol-2(3H)-one hydrochloride] has an IC50 [1] of 5.8 nM and a GI50 [2] of 92 nM.
`N[C@H]1CC[C@H](COc2cc(-c3n[nH]c(=O)o3)ccc2Cl)CC1` [Example 241, 5-(3-{[(1r,4r)-4-aminocyclohexyl]methoxy}-4-chlorophenyl)-1,3,4-oxadiazol-2(3H)-one] was tested, and the IC50 [1] was 3.7 nM and the GI50 [2] was 79 nM.
`C[C@H](Nc1cc(-c2n[nH]c(=O)o2)cc2[nH]ncc12)C1CCNCC1` [Example 100, 5-(4-{[(1S)-1-(piperidin-4-yl)ethyl]amino}-1H-indazol-6-yl)-1,3,4-oxadiazol-2(3H)-one dihydrochloride] gave an IC50 [1] of 1.9 nM and a GI50 [2] of 260 nM.
For `O=c1[nH]nc(-c2ccc(C(F)(F)F)c(NCCN3CCNCC3)c2)o1` [Example 65, 5-[3-{[2-(piperazin-1-yl)ethyl]amino}-4-(trifluoromethyl)phenyl]-1,3,4-oxadiazol-2(3H)-one dihydrochloride], the IC50 [1] was 14 nM and the GI50 [2] was 1000 nM.
In the case of `N[C@H]1CC[C@H](Nc2cc(-c3n[nH]c(=O)o3)ccc2Cl)CC1` [Example 32, 5-(3-{[(1r,4r)-4-aminocyclohexyl]amino}-4-chlorophenyl)-1,3,4-oxadiazol-2(3H)-one], the IC50 [1] is reported as 5.7 nM and the GI50 [2] is reported as 410 nM.
`C[C@@H](C1CCNCC1)N1CCCOc2c(F)cc(-c3n[nH]c(=O)o3)cc21` [Example 254, 5-{9-fluoro-5-[(1S)-1-(piperidin-4-yl)ethyl]-2,3,4,5-tetrahydro-1,5-benzoxazepin-7-yl}-1,3,4-oxadiazol-2(3H)-one hydrochloride] was tested, and the IC50 [1] was 15 nM and the GI50 [2] was 680 nM.
In the case of `CCC1(CNc2cc(-c3n[nH]c(=O)o3)ccc2C(F)(F)F)CCNCC1` [Example 122, 5-[3-{[(4-ethylpiperidin-4-yl)methyl]amino}-4-(trifluoromethyl)phenyl]-1,3,4-oxadiazol-2(3H)-one hydrochloride], the IC50 [1] is reported as 6.5 nM and the GI50 [2] is reported as 220 nM.
With `N[C@H]1CC[C@H](CSc2cc(-c3n[nH]c(=O)o3)ccc2C(F)(F)F)CC1` [Example 234, 5-[3-({[(1r,4r)-4-aminocyclohexyl]methyl}sulfanyl)-4-(trifluoromethyl)phenyl]-1,3,4-oxadiazol-2(3H)-one] the IC50 [1] was 2.6 nM and the GI50 [2] was 120 nM.
In the case of `CC(Nc1cc(-c2n[nH]c(=O)o2)ccc1C(F)(F)F)C1(C)CCNCC1` (centres unmarked) [Example 115, 5-[3-{[1-(4-methylpiperidin-4-yl)ethyl]amino}-4-(trifluoromethyl)phenyl]-1,3,4-oxadiazol-2(3H)-one], the IC50 [1] is reported as 12 nM and the GI50 [2] is reported as 100 nM.
`N[C@H]1CC[C@H](CNc2cc(-c3n[nH]c(=O)o3)ccc2-c2ccccc2)CC1` [Example 71, 5-[2-({[(1r,4r)-4-aminocyclohexyl]methyl}amino)[1,1′-biphenyl]-4-yl]-1,3,4-oxadiazol-2(3H)-one hydrochloride] showed an IC50 [1] of 140 nM and a GI50 [2] of 4200 nM.
In the case of `Cc1cc(Cl)c(N[C@@H](C)C2CCNCC2)cc1-c1n[nH]c(=O)o1` [Example 94, 5-(4-chloro-2-methyl-5-{[(1S)-1-(piperidin-4-yl)ethyl]amino}phenyl)-1,3,4-oxadiazol-2(3H)-one hydrochloride], the IC50 [1] is reported as 8.4 nM and the GI50 [2] is reported as 140 nM.
`C[C@H](Nc1cc(-c2n[nH]c(=O)o2)cc(F)c1OC(F)(F)F)[C@H]1CC[C@H](N)CC1` [Example 170, 5-[3-({(1S)-1-[(1r,4S)-4-aminocyclohexyl]ethyl}amino)-5-fluoro-4-(trifluoromethoxy)phenyl]-1,3,4-oxadiazol-2(3H)-one hydrochloride] showed an IC50 [1] of 1.8 nM and a GI50 [2] of 17 nM.
In the case of `O=c1[nH]nc(-c2ccc(C(F)(F)F)c(N[C@H](C3CCNCC3)C(F)(F)F)c2)o1` [Example 146, 5-[4-(trifluoromethyl)-3-{[(1R)-2,2,2-trifluoro-1-(piperidin-4-yl)ethyl]amino}phenyl]-1,3,4-oxadiazol-2(3H)-one hydrochloride], the IC50 [1] is reported as 12 nM and the GI50 [2] is reported as 89 nM.
For `C[C@H](Nc1cc(-c2n[nH]c(=O)o2)ccc1C(F)(F)F)C1CCCNCC1` (stereo partly drawn) [Example 157, 5-[3-{[(1S)-1-(azepan-4-yl)ethyl]amino}-4-(trifluoromethyl)phenyl]-1,3,4-oxadiazol-2(3H)-one hydrochloride], the IC50 [1] was 3.3 nM and the GI50 [2] was 65 nM.
Molecule `C[C@H](Nc1cc(-c2n[nH]c(=O)o2)ccc1C(F)(F)F)[C@H]1C[C@@H](NCC2CC2)C1` [Example 196, 5-[3-{[(1S)-1-{(1s,3R)-3-[(cyclopropylmethyl)amino]cyclobutyl}ethyl]amino}-4-(trifluoromethyl)phenyl]-1,3,4-oxadiazol-2(3H)-one hydrochloride] has an IC50 [1] of 9.2 nM and a GI50 [2] of 250 nM.
`N[C@H]1CC[C@@H](CNc2cc(-c3n[nH]c(=O)o3)ccc2C(F)(F)F)CC1` [Example 74, 5-[3-({[(1s,4s)-4-aminocyclohexyl]methyl}amino)-4-(trifluoromethyl)phenyl]-1,3,4-oxadiazol-2(3H)-one hydrochloride] gave an IC50 [1] of 2.2 nM and a GI50 [2] of 150 nM.
`C[C@H](Nc1cc(-c2n[nH]c(=O)o2)ccc1Cl)[C@H]1C[C@@H](N)C1(C)C` [Example 168, 5-[3-({(1S)-1-[(1S,3R)-3-amino-2,2-dimethylcyclobutyl]ethyl}amino)-4-chlorophenyl]-1,3,4-oxadiazol-2(3H)-one] gave an IC50 [1] of 10 nM and a GI50 [2] of 110 nM.
`CC[C@H]1CNCC[C@H]1[C@H](C)Nc1cc(-c2n[nH]c(=O)o2)cc(F)c1C(F)(F)F` [Example 226, 5-[3-({(1S)-1-[(3R,4R)-3-ethylpiperidin-4-yl]ethyl}amino)-5-fluoro-4-(trifluoromethyl)phenyl]-1,3,4-oxadiazol-2(3H)-one] showed an IC50 [1] of 5.4 nM and a GI50 [2] of 83 nM.
Molecule `C[C@H](Nc1cc(-c2n[nH]c(=O)o2)ccc1C(F)(F)F)[C@H]1CC[C@H](NCC(F)(F)F)CC1` [Example 197, 5-[3-{[(1S)-1-{(1r,4S)-4-[(2,2,2-trifluoroethyl)amino]cyclohexyl}ethyl]amino}-4-(trifluoromethyl)phenyl]-1,3,4-oxadiazol-2(3H)-one hydrochloride] has an IC50 [1] of 140 nM and a GI50 [2] of 1900 nM.
Molecule `C[C@H](Nc1cc(-c2n[nH]c(=O)o2)ccc1C(F)(F)F)C12CC(N)(C1)C2` [Example 185, 5-[3-{[(1S)-1-(3-aminobicyclo[1.1.1]pentan-1-yl)ethyl]amino}-4-(trifluoromethyl)phenyl]-1,3,4-oxadiazol-2(3H)-one] has a GI50 [2] of 87 nM.

Reference: patent publication US20220024921A1, “1,3,4-OXADIAZOLONE COMPOUND AND PHARMACEUTICAL” (NIPPON SHINYAKU CO., LTD., priority 2018, published 2022)
